Laboratory results as given in PubChem BioAssay AID256 (DTP/NCI, 2004).
Where “and” joins values, the source holds several entries; their conditions need not be identical. Equal values may be shown once. Toxic doses and inconclusive results are not listed.

System: CD2F1 mice, L1210 leukemia ip, survival T/C
Experiment: NCI In Vivo Anticancer Drug Screen. Data for tumor model L1210 Leukemia (intraperitoneal) in CD2F1 (CDF1) mice
Conditions: higher = longer survival
Procedure, shortened: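 Ratio T/C, where T is the treated-group value and C the vehicle-dosed control value, from mice implanted with a transplantable tumor.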

[1] = endpoint: mean survival time, dose: 100.0 mg/kg/injection, schedule: Q01DX001 (ip), vehicle: other
[2] = endpoint: mean survival time, dose: 200.0 mg/kg/injection, schedule: Q01DX001 (ip), vehicle: other
[3] = endpoint: mean survival time, dose: 400.0 mg/kg/injection, schedule: Q01DX001 (ip), vehicle: other
[4] = endpoint: mean survival time, dose: 200.0 mg/kg/injection, schedule: Q01DX001 (ip), vehicle: saline
[5] = endpoint: mean survival time, dose: 100.0 mg/kg/injection, schedule: Q04DX003 (ip), vehicle: saline with Tween-80
[6] = endpoint: mean survival time, dose: 200.0 mg/kg/injection, schedule: Q04DX003 (ip), vehicle: saline with Tween-80
[7] = endpoint: mean survival time, dose: 400.0 mg/kg/injection, schedule: Q04DX003 (ip), vehicle: saline with Tween-80
[8] = endpoint: mean survival time, dose: 100.0 mg/kg/injection, schedule: Q01DX009 (ip), vehicle: saline with Tween-80
[9] = endpoint: mean survival time, dose: 200.0 mg/kg/injection, schedule: Q01DX009 (ip), vehicle: saline with Tween-80
[10] = endpoint: mean survival time, dose: 400.0 mg/kg/injection, schedule: Q01DX009 (ip), vehicle: saline with Tween-80

CCOC(=O)c1ccc(NN=NCCF)cc1
T/C (endpoint: median survival time, dose: 3.12 mg/kg/injection, schedule: Q01DX009 (ip), vehicle: distilled water + Tween-80): 114 % of control and 96 % of control | T/C (endpoint: median survival time, dose: 3.13 mg/kg/injection, schedule: Q01DX009 (ip), vehicle: distilled water + Tween-80): 104 % of control | T/C (endpoint: median survival time, dose: 6.25 mg/kg/injection, schedule: Q01DX009 (ip), vehicle: distilled water + Tween-80): 122 % of control and 98 % of control (2×) | T/C (endpoint: median survival time, dose: 12.5 mg/kg/injection, schedule: Q01DX009 (ip), vehicle: distilled water + Tween-80): 92 % of control and 96 % of control | T/C (endpoint: median survival time, dose: 50.0 mg/kg/injection, schedule: Q01DX009 (ip), vehicle: distilled water + Tween-80): 94 % of control

CC(NC=O)(C(=O)O)c1ccccc1 (stereo unspecified)
T/C (endpoint: mean survival time, dose: 50.0 mg/kg/injection, schedule: Q01DX001 (ip), vehicle: other): 102 % of control | T/C [1]: 97 % of control and 90 % of control | T/C [2]: 100 % of control and 102 % of control | T/C [3]: 97 % of control

O=C(O)CCSCCC(=O)O
T/C (endpoint: mean survival time, dose: 100.0 mg/kg/injection, schedule: Q01DX001 (ip), vehicle: saline): 100 % of control | T/C [4]: 105 % of control | T/C (endpoint: mean survival time, dose: 400.0 mg/kg/injection, schedule: Q01DX001 (ip), vehicle: saline): 101 % of control

Cc1cc(C)c(C(=O)CC(O)(C(F)(F)F)C(F)(F)F)c(C)c1
T/C [5]: 115 % of control | T/C [6]: 107 % of control | T/C [7]: 107 % of control

C=COCC(C)C (tested in a mixture with another compound)
T/C (endpoint: mean survival time, dose: 0.78 mg/kg/injection, schedule: Q01DX009 (ip), vehicle: Klucel (hydroxypropylcellulose) (HPC)): 93 % of control | T/C (endpoint: mean survival time, dose: 1.56 mg/kg/injection, schedule: Q01DX009 (ip), vehicle: Klucel (hydroxypropylcellulose) (HPC)): 90 % of control | T/C (endpoint: mean survival time, dose: 1.56 mg/kg/injection, schedule: Q01DX009 (ip), vehicle: saline with Tween-80): 86 % of control | T/C (endpoint: mean survival time, dose: 1.56 mg/kg/injection, schedule: Q04DX003 (ip), vehicle: other): 109 % of control | T/C (endpoint: mean survival time, dose: 3.12 mg/kg/injection, schedule: Q01DX009 (ip), vehicle: Klucel (hydroxypropylcellulose) (HPC)): 88 % of control | T/C (endpoint: mean survival time, dose: 3.12 mg/kg/injection, schedule: Q04DX003 (ip), vehicle: other): 91 % of control | T/C (endpoint: mean survival time, dose: 3.13 mg/kg/injection, schedule: Q01DX009 (ip), vehicle: saline with Tween-80): 92 % of control | T/C (endpoint: mean survival time, dose: 4.67 mg/kg/injection, schedule: Q01DX009 (ip), vehicle: Klucel (hydroxypropylcellulose) (HPC)): 98 % of control | T/C (endpoint: mean survival time, dose: 6.25 mg/kg/injection, schedule: Q01DX009 (ip), vehicle: saline with Tween-80): 94 % of control | T/C (endpoint: mean survival time, dose: 7.09 mg/kg/injection, schedule: Q01DX009 (ip), vehicle: Klucel (hydroxypropylcellulose) (HPC)): 98 % of control | T/C (endpoint: mean survival time, dose: 10.6 mg/kg/injection, schedule: Q01DX009 (ip), vehicle: Klucel (hydroxypropylcellulose) (HPC)): 93 % of control | T/C (endpoint: mean survival time, dose: 12.5 mg/kg/injection, schedule: Q04DX003 (ip), vehicle: saline with Tween-80): 87 % of control | T/C (endpoint: mean survival time, dose: 15.8 mg/kg/injection, schedule: Q01DX009 (ip), vehicle: alcohol): 96 % of control | T/C (endpoint: mean survival time, dose: 18.8 mg/kg/injection, schedule: Q01DX009 (ip), vehicle: saline): 111 % of control | T/C (endpoint: mean survival time, dose: 24.0 mg/kg/injection, schedule: Q01DX009 (ip), vehicle: alcohol): 88 % of control | T/C (endpoint: mean survival time, dose: 35.0 mg/kg/injection, schedule: Q01DX009 (ip), vehicle: alcohol): 97 % of control | T/C (endpoint: mean survival time, dose: 37.5 mg/kg/injection, schedule: Q01DX009 (ip), vehicle: saline): 111 % of control | T/C (endpoint: mean survival time, dose: 100.0 mg/kg/injection, schedule: Q01DX001 (ip), vehicle: saline with Tween-80): 113 % of control | T/C (endpoint: mean survival time, dose: 200.0 mg/kg/injection, schedule: Q01DX001 (ip), vehicle: saline with Tween-80): 109 % of control | T/C (endpoint: mean survival time, dose: 400.0 mg/kg/injection, schedule: Q01DX001 (ip), vehicle: saline with Tween-80): 95 % of control

Cc1nc(C)c(Cc2ccccc2O)c(=O)[nH]1
T/C [4]: 103 % of control

NC(=O)c1ccccc1NC(=O)Nc1ccc(Cl)c(C(F)(F)F)c1
T/C (endpoint: mean survival time, dose: 50.0 mg/kg/injection, schedule: Q01DX009 (ip), vehicle: saline with Tween-80): 87 % of control | T/C [8]: 96 % of control | T/C [9]: 93 % of control

O=S(OCC1COS(=O)O1)OCC1COS(=O)O1 (stereo unspecified)
T/C (endpoint: mean survival time, dose: 100.0 mg/kg/injection, schedule: Q01DX001 (ip), vehicle: saline sonified): 106 % of control | T/C (endpoint: mean survival time, dose: 200.0 mg/kg/injection, schedule: Q01DX001 (ip), vehicle: saline sonified): 97 % of control | T/C (endpoint: mean survival time, dose: 400.0 mg/kg/injection, schedule: Q01DX001 (ip), vehicle: saline sonified): 104 % of control

CC(=O)NC(=S)NC(C)=O
T/C (endpoint: mean survival time, dose: 75.0 mg/kg/injection, schedule: Q04DX003 (ip), vehicle: saline): 103 % of control | T/C (endpoint: mean survival time, dose: 150.0 mg/kg/injection, schedule: Q04DX003 (ip), vehicle: saline): 103 % of control | T/C (endpoint: mean survival time, dose: 300.0 mg/kg/injection, schedule: Q04DX003 (ip), vehicle: saline): 107 % of control

c1ccc(-c2ncnc3ccccc23)cc1
T/C [5]: 103 % of control | T/C [6]: 101 % of control | T/C [7]: 97 % of control

COc1ccc(CCl)cc1CCl
T/C [5]: 102 % of control | T/C [6]: 91 % of control

COC(=O)CCCCC(C)=O
T/C [8]: 101 % of control | T/C (endpoint: mean survival time, dose: 100.0 mg/kg/injection, schedule: Q04DX003 (ip), vehicle: saline sonified): 98 % of control | T/C [9]: 101 % of control | T/C (endpoint: mean survival time, dose: 200.0 mg/kg/injection, schedule: Q04DX003 (ip), vehicle: saline sonified): 98 % of control | T/C [10]: 98 % of control | T/C (endpoint: mean survival time, dose: 400.0 mg/kg/injection, schedule: Q04DX003 (ip), vehicle: saline sonified): 102 % of control

CC(CN1CC(=O)NC(=O)C1)N1CC(=O)NC(=O)C1 (stereo unspecified)
T/C (endpoint: mean survival time, dose: 4.0 mg/kg/injection, schedule: Q01DX009 (ip), vehicle: saline): 112 % of control | T/C (endpoint: mean survival time, dose: 8.0 mg/kg/injection, schedule: Q01DX009 (ip), vehicle: saline): 123 % of control | T/C (endpoint: mean survival time, dose: 32.0 mg/kg/injection, schedule: Q01DX009 (ip), vehicle: saline): 158 % of control | T/C (endpoint: mean survival time, dose: 32.0 mg/kg/injection, schedule: Q04DX003 (ip), vehicle: saline): 117 % of control | T/C (endpoint: mean survival time, dose: 50.0 mg/kg/injection, schedule: Q01DX001 (ip), vehicle: saline): 96 % of control | T/C (endpoint: mean survival time, dose: 64.0 mg/kg/injection, schedule: Q01DX009 (ip), vehicle: saline): 124 % of control | T/C (endpoint: mean survival time, dose: 128.0 mg/kg/injection, schedule: Q01DX009 (ip), vehicle: saline): 104 % of control | T/C (endpoint: mean survival time, dose: 256.0 mg/kg/injection, schedule: Q04DX003 (ip), vehicle: saline): 196 % of control | T/C (endpoint: mean survival time, dose: 512.0 mg/kg/injection, schedule: Q04DX003 (ip), vehicle: saline): 251 % of control | T/C (endpoint: median survival time, dose: 180.0 mg/kg/injection, schedule: Q04DX003 (ip), vehicle: Klucel (hydroxypropylcellulose) (HPC)): 169 % of control and 170 % of control | T/C (endpoint: median survival time, dose: 300.0 mg/kg/injection, schedule: Q04DX003 (ip), vehicle: Klucel (hydroxypropylcellulose) (HPC)): 236 % of control | T/C (endpoint: median survival time, dose: 500.0 mg/kg/injection, schedule: Q04DX003 (ip), vehicle: Klucel (hydroxypropylcellulose) (HPC)): 122 % of control

CCCCCCCCCCCCCCCCCC[N+](CCO)(CCO)Cc1ccc(C[N+](CCO)(CCO)CCCCCCCCCCCCCCCCCC)cc1
T/C (endpoint: mean survival time, dose: 12.5 mg/kg/injection, schedule: Q04DX002 (ip), vehicle: saline with Tween-80): 101 % of control | T/C (endpoint: mean survival time, dose: 25.0 mg/kg/injection, schedule: Q04DX002 (ip), vehicle: saline with Tween-80): 101 % of control | T/C (endpoint: mean survival time, dose: 50.0 mg/kg/injection, schedule: Q04DX002 (ip), vehicle: saline with Tween-80): 89 % of control

O=C(Nc1ccccc1)Nc1ccc(N(CCCl)CCCl)cc1
T/C (endpoint: mean survival time, dose: 100.0 mg/kg/injection, schedule: Q01DX001 (ip), vehicle: Klucel (hydroxypropylcellulose) (HPC)): 105 % of control | T/C (endpoint: mean survival time, dose: 200.0 mg/kg/injection, schedule: Q01DX001 (ip), vehicle: Klucel (hydroxypropylcellulose) (HPC)): 108 % of control | T/C (endpoint: mean survival time, dose: 400.0 mg/kg/injection, schedule: Q01DX001 (ip), vehicle: Klucel (hydroxypropylcellulose) (HPC)): 114 % of control

CC(=O)C1=C(C)NC(C)=C(C(C)=O)C1c1ccccc1
T/C [8]: 103 % of control | T/C [9]: 107 % of control | T/C [10]: 107 % of control

O=C(O)Cc1c(Cl)cccc1[N+](=O)[O-]
T/C [1]: 116 % of control | T/C [2]: 101 % of control | T/C [3]: 104 % of control

COc1cccc(C#Cc2ccccc2NC(C)=O)c1
T/C [8]: 91 % of control | T/C [9]: 86 % of control | T/C [10]: 94 % of control

O=C(/C=C\c1ccc(/C=C/C(=O)Nc2cccc(C3=NCCCN3)c2)cc1)Nc1cccc(C2=NCCCN2)c1
T/C (endpoint: median survival time, dose: 5.0 mg/kg/injection, schedule: Q01DX009 (ip), vehicle: Klucel (hydroxypropylcellulose) (HPC)): 175 % of control and 196 % of control | T/C (endpoint: median survival time, dose: 10.0 mg/kg/injection, schedule: Q01DX009 (ip), vehicle: Klucel (hydroxypropylcellulose) (HPC)): 185 % of control and 250 % of control | T/C (endpoint: median survival time, dose: 20.0 mg/kg/injection, schedule: Q01DX009 (ip), vehicle: Klucel (hydroxypropylcellulose) (HPC)): 113 % of control
